# Key:
# Type in all cases: in vivo
# [1] = test system: diamondback moth (Plutella xylostella); assay: Insecticidal effect on diamondback moth (Test Example 1); conditions: for Insecticidal effect on diamondback moth (Test Example 1), judged grade: mortality judged according to the criterion shown in Test Example 1; for Insecticidal effect (Test Example 1), judged from mortality / Insecticidal effect, Test Example 1: diamondback moth; for Insecticidal effect (Test Example 1), judged from mortality: judged by the criterion of Test Example 1
# How it was run: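 Eggs laid by adult moths on Chinese cabbage seedlings, which were immersed in test solution, air-dried and kept at 25 °C. Hatched insects counted 6 days after immersion and mortality calculated, with effect graded by criterion; triplicate groups of 10 insects.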
# [2] = test system: common cutworm (Spodoptera Litura); assay: Insecticidal effect on common cutworm (Test Example 2); conditions: 500 ppm, 25° C.; for Insecticidal effect on common cutworm (Test Example 2), judged grade / Insecticidal effect (Test Example 2), judged from mortality: cabbage leaf dip; for Insecticidal effect on common cutworm (Test Example 2), judged grade: second-instar larvae; for Insecticidal effect on common cutworm (Test Example 2), judged grade / Insecticidal effect, Test Example 2: eight days after inoculation; for Insecticidal effect (Test Example 2), judged from mortality: 8 days after inoculation; for Insecticidal effect, Test Example 2: cabbage leaf immersed
# How it was run: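 Mortality is the read-out: larvae are counted as dead or alive on day 8 and the percentage is graded by an effect criterion. Second-instar larvae are kept with the air-dried treated material in a sealed dish at 25° C, in triplicate groups of ten.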
# [3] = test system: rice leafroller (Cnaphalocrocis medinalis); assay: Insecticidal effect on rice leafroller (Test Example 3); conditions: 500 ppm, 25° C., humidity 70%; for Insecticidal effect on rice leafroller (Test Example 3), judged grade / Insecticidal effect (Test Example 3), judged from mortality: rice lamina dip; for Insecticidal effect on rice leafroller (Test Example 3), judged grade: third-instar larvae; for Insecticidal effect on rice leafroller (Test Example 3), judged grade / Insecticidal effect, Test Example 3: four days after inoculation; for Insecticidal effect (Test Example 3), judged from mortality: 4 days after inoculation; for Insecticidal effect, Test Example 3: rice lamina immersed
# How it was run: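 Groups of 10 third-instar larvae, in triplicate, are placed on air-dried lamina resting on wet filter paper. Incubation runs four days at 25° C with 70% humidity before survivors and dead are tallied.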
# [4] = second-instar larvae of common cutworm
# [5] = third-instar larvae of rice leafroller
# [6] = mortality judged by criterion of Test Example 1
# [7] = common cutworm second-instar larvae
# [8] = rice leafroller third-instar larvae
# [9] = judged by the mortality criterion of Test Example 1
compound,measurement,setting,value
Cc1cc(F)ccc1NC(=O)c1cccc([N+](=O)[O-])c1C(=O)NC(C)C [compound 675],"Insecticidal effect on diamondback moth (Test Example 1), judged grade",[1],A (100)
same,"Insecticidal effect on common cutworm (Test Example 2), judged grade",[2],A (100)
same,"Insecticidal effect on rice leafroller (Test Example 3), judged grade",[3],A (100)
Cc1cc(C(F)(F)C(F)(F)F)ccc1NC(=O)c1cccc(Cl)c1C(=O)NC(C)(C)/C=C/c1ccccc1 [compound 1604],"Insecticidal effect (Test Example 1), judged from mortality",[1],A (100)
same,"Insecticidal effect (Test Example 2), judged from mortality",[2]; [4],A (100)
same,"Insecticidal effect (Test Example 3), judged from mortality",[3]; [5],A (100)
COc1cc(C(F)(C(F)(F)F)C(F)(F)F)ccc1NC(=O)c1cccc(I)c1C(=O)NC(C)C [compound 1715],"Insecticidal effect (Test Example 1), judged from mortality",[1],A (100)
same,"Insecticidal effect (Test Example 2), judged from mortality",[2]; [4],A (100)
same,"Insecticidal effect (Test Example 3), judged from mortality",[3]; [5],A (100)
Cc1cc(C(F)(F)C(F)(F)F)ccc1NC(=O)c1cccc(I)c1C(=O)N[C@@H](C)CO [compound 1482],"Insecticidal effect (Test Example 1), judged from mortality",[1],A (100)
same,"Insecticidal effect (Test Example 2), judged from mortality",[2]; [4],A (100)
same,"Insecticidal effect (Test Example 3), judged from mortality",[3]; [5],A (100)
Cc1cc(OC(F)(F)C(F)F)ccc1NC(=O)c1cccc(C(F)(F)F)c1C(=O)NC(C)C [compound 1206],"Insecticidal effect, Test Example 1",[1]; [6],A (100)
same,"Insecticidal effect, Test Example 2",[2]; [7],A (100)
same,"Insecticidal effect, Test Example 3",[3]; [8],A (100)
Cc1cc(C(F)(F)C(F)(F)F)ccc1NC(=O)c1cccc(Cl)c1C(=O)NC(C)CBr (stereo not drawn) [compound 1652],"Insecticidal effect (Test Example 1), judged from mortality",[1],A (100)
same,"Insecticidal effect (Test Example 2), judged from mortality",[2]; [4],A (100)
same,"Insecticidal effect (Test Example 3), judged from mortality",[3]; [5],A (100)
CC(C)NC(=O)c1c(I)cccc1C(=O)Nc1ccc(OC(F)F)cc1C(F)(F)F [compound 409],"Insecticidal effect, Test Example 1",[1]; [9],A (100)
same,"Insecticidal effect, Test Example 2",[2]; [4],A (100)
same,"Insecticidal effect, Test Example 3",[3]; [5],A (100)
Cc1cc(C(F)(F)C(F)(F)F)ccc1NC(=O)c1cccc(I)c1C(=O)NC(C)c1ccccn1 (stereo not drawn) [compound 1777],"Insecticidal effect (Test Example 1), judged from mortality",[1],A (100)
same,"Insecticidal effect (Test Example 2), judged from mortality",[2]; [4],A (100)
same,"Insecticidal effect (Test Example 3), judged from mortality",[3]; [5],A (100)
Cc1cc(C#N)ccc1NC(=O)c1cccc(I)c1C(=O)NC(C)C [compound 1389],"Insecticidal effect, Test Example 1",[1]; [6],A (100)
same,"Insecticidal effect, Test Example 2",[2]; [7],A (100)
same,"Insecticidal effect, Test Example 3",[3]; [8],A (100)
CCCN(C)C(=O)c1c(I)cccc1C(=O)Nc1ccc(C(F)(F)C(F)(F)F)cc1C [compound 1069],"Insecticidal effect, Test Example 1",[1]; [6],A (100)
same,"Insecticidal effect, Test Example 2",[2]; [7],A (100)
same,"Insecticidal effect, Test Example 3",[3]; [8],A (100)
Cc1c(NC(=O)c2cccc(Br)c2C(=O)NC(C)C)ccc(OC(F)F)c1Cl [compound 294],"Insecticidal effect, Test Example 1",[1]; [9],A (100)
same,"Insecticidal effect, Test Example 2",[2]; [4],A (100)
same,"Insecticidal effect, Test Example 3",[3]; [5],A (100)
CC(C)NC(=O)c1c(I)cccc1C(=O)Nc1ccc(F)cc1F [compound 1055],"Insecticidal effect, Test Example 1",[1]; [6],A (100)
same,"Insecticidal effect, Test Example 2",[2]; [7],A (100)
same,"Insecticidal effect, Test Example 3",[3]; [8],A (100)
CCNC(=O)c1c(C(=O)Nc2cc(Cl)ccc2C)cccc1[N+](=O)[O-] [compound 10],"Insecticidal effect, Test Example 1",[1]; [9],A (100)
same,"Insecticidal effect, Test Example 2",[2]; [4],D (79-50)
same,"Insecticidal effect, Test Example 3",[3]; [5],D (79-50)
CC(C)NC(=O)c1c(I)cccc1C(=O)Nc1ccc2oc(-c3ccc(C(F)(F)F)cc3)nc2c1 [compound 1173],"Insecticidal effect, Test Example 1",[1]; [6],A (100)
same,"Insecticidal effect, Test Example 2",[2]; [7],A (100)
same,"Insecticidal effect, Test Example 3",[3]; [8],A (100)
Cc1cc(OC(F)(F)C(F)F)ccc1NC(=O)c1ccccc1C(=O)NC(C)C [compound 60],"Insecticidal effect, Test Example 1",[1]; [9],A (100)
same,"Insecticidal effect, Test Example 2",[2]; [4],A (100)
same,"Insecticidal effect, Test Example 3",[3]; [5],A (100)
Cc1ccc(NC(=O)c2cccc(I)c2C(=O)NC(C)C)c(C)c1Cl [compound 364],"Insecticidal effect, Test Example 1",[1]; [9],A (100)
same,"Insecticidal effect, Test Example 2",[2]; [4],A (100)
same,"Insecticidal effect, Test Example 3",[3]; [5],D (79-50)
CC(C)NC(=O)c1c(C(=O)Nc2cccc(C(F)(F)F)c2)cccc1[N+](=O)[O-] [compound 607],"Insecticidal effect on diamondback moth (Test Example 1), judged grade",[1],A (100)
same,"Insecticidal effect on common cutworm (Test Example 2), judged grade",[2],A (100)
same,"Insecticidal effect on rice leafroller (Test Example 3), judged grade",[3],A (100)
Cc1cc(OC(F)(F)Br)ccc1NC(=O)c1cccc(F)c1C(=O)NC(C)C [compound 511],"Insecticidal effect on diamondback moth (Test Example 1), judged grade",[1],A (100)
same,"Insecticidal effect on common cutworm (Test Example 2), judged grade",[2],A (100)
same,"Insecticidal effect on rice leafroller (Test Example 3), judged grade",[3],A (100)

# From US6362369B1, “Phthalic acid diamide derivatives fluorine-containing aniline compounds as starting material, agricultural and horticultural insecticides, and a method for application of the insecticides” (Nihon Nohyaku Co., Ltd., priority 1997, dated 2002)
